From article PMC11019538, “Biophysics-Guided Lead Discovery of HBV Capsid Assembly Modifiers” (ACS Infectious Diseases, 2024)
Like-named read-outs stand apart in the source and are kept apart here.

Assays:
[1] = target: T1, Cp149 capsid assembly (Hepatitis B virus genotype D subtype adw, UniProt P03147); assay: Transmission electron microscopy of assembled Cp149 products; assay type: biochemical; conditions: 20 μM Cp149, 40 μM compound
T1 construct: The N-terminal domain of Cp (Cp149) is sufficient for forming regular capsids; made in house; host or cells: E. coli BL21(DE3)
Description: The assembled samples of Cp149 were prepared as described in the Size Exclusion Chromatography section. Eight μL of each sample was added onto the 300 mesh Lacey Formvar carbon–copper grids (Ted Pella, Inc.) and allowed to sit for 1.5 min. The grid was then rinsed in 500 mL of deionized water for 10 s twice to rinse off the extra buffer on the grid. After drying, the sample was stained with 8 μL of 2% uranyl acetate for 1 min. After removal and drying of the uranyl acetate solution, the sample was imaged with a Hitachi HT7700 electron microscope at an accelerating voltage of 120 kV, at the IMat Materials Characterization Facility of Georgia Institute of Technology. The images underwent processing using ImageJ software. Initially, to minimize noise, a Gaussian blur filter was applied. These images were then converted into an 8 bit binary format for edge detection. ImageJ identified particles ranging in size from 800 to 2000 pixels. An example of a processed image can be seen in Figure S14. The circularity of each particle was calculated using the formula circularity = 4π × area × perimeter^–2. […] A total of four images, each containing a minimum of 100 capsids, were analyzed to determine the proportion of the abnormal capsids. The entire experiment was duplicated, and the outcomes from both sets were then averaged.

[2] = target: T1, Cp149 capsid assembly; assay: Size exclusion chromatography of Cp149 assembly; assay type: biochemical; conditions: 20 μM Cp149, 40 μM CAM, 500 mM NaCl, 1 h, 37 °C
Description: The Cp149 protein solution and the compound solution were initially mixed in concentrations of 40 μM Cp149 and 80 μM compound and incubated for 1 h at 37 °C to allow the compound to bind to the protein. The NaCl solution was then added to the incubated mixture to final concentrations of 20 μM Cp149, 40 μM compound, and 500 mM NaCl to initiate the assembly of Cp149. This mixture was incubated at 37 °C for 1 h. Finally, […] of the sample was analyzed using a hand-poured Superose 6 column, at the flow rate of 0.4 mL/min, and the isocratic mobile phase was 50 mM HEPES (pH 7.5).

[3] = target: T2, Cp149 (Hepatitis B virus genotype D subtype adw, UniProt P03147); set-up: method as in PMID 31712213; conditions: read-out: previously reported dissociation constant (KD); cited from earlier work
T2 construct: The N-terminal domain of Cp (Cp149) is sufficient for forming regular capsids; made in house; host or cells: E. coli BL21(DE3)

[4] = tested on: HBV DNA replication in HepAD38 cells; assay: HBV DNA replication inhibition assay in HepAD38 cells (7 days, PCR of supernatant DNA); assay type: cell-based, hepatitis B virus; conditions: Hepatitis B virus
Description: HepAD38 cells were seeded at 50,000 cells/well in collagen-coated 96-well plates. […] The experiment lasted 7 days. On day 7, total DNA was purified from the supernatant using a commercially available kit (DNeasy 96 Blood & Tissue kit, Qiagen). The HBV DNA was amplified in a polymerase chain reaction assay using LightCycler 480 II (Roche), as previously described.[63] All samples were tested in duplicate.

[5] = MTT cytotoxicity, PBM cells; assay type: cell-based, human; conditions: human, peripheral blood mononuclear (PBM) cells
Description: (§1) Human peripheral blood mononuclear (PBM), T lymphoblast CEM-CCRF (herein referred to as CEM cells), African green monkey kidney (Vero), or human liver carcinoma (HepG2) cells were tested via MTT assay using the CellTiter 96 Non-Radioactive Cell Proliferation (Promega) kit as previously described.[63]

[6] = tested on: human peripheral blood mononuclear (PBM) cells; assay: MTT cytotoxicity, PBM cells; assay type: cell-based; conditions: 100 µM
Description: as §1

[7] = MTT cytotoxicity, CEM cells; assay type: cell-based, human; conditions: human, T lymphoblast CEM-CCRF (CEM) cells
Description: as §1

[8] = MTT cytotoxicity, Vero cells; assay type: cell-based, African green monkey; conditions: African green monkey, Vero cells (kidney)
Description: as §1

[9] = tested on: African green monkey kidney (Vero) cells; assay: MTT cytotoxicity, Vero cells; assay type: cell-based; conditions: Vero cells, 100 µM
Description: as §1

[10] = MTT cytotoxicity, HepG2 cells; assay type: cell-based, human; conditions: human, HepG2 cells (liver carcinoma)
Description: as §1

[11] = tested on: human liver carcinoma (HepG2) cells; assay: MTT cytotoxicity, HepG2 cells; assay type: cell-based; conditions: HepG2 cells, 100 µM
Description: as §1

[12] = target: T2, Cp149; assay: Tryptophan fluorescence titration; assay type: binding; conditions: 20 μM Cp149, compound up to 100 μM
Description: Each of the compounds was titrated into 100 μL of the protein solution to final concentrations of 0, 5, 10, 20, 50, and 100 μM in a clear bottom 96-well plate. […] Tryptophan fluorescence levels were measured by exciting the samples at 285 nm and measuring the emission at 340 nm with the Varioskan Flash (Thermo Fisher) plate reader. […] Fluorescence quenching was calculated by taking the difference of net fluorescence levels of each concentration and of the 0 μM sample. All the samples were run in triplicate, and the results were averaged. The dissociation constants (KD) were fitted by the one-site-specific binding model of GraphPad.[45]

[13] = tested on: PBM, CEM, Vero and HepG2 cells; assay: MTT cytotoxicity, four cell lines taken together; assay type: cell-based
Description: as §1

[14] = in vitro
[15] = MTS cytotoxicity (Table S4)
[16] = MTT cytotoxicity, four cell lines taken together; assay type: cell-based; conditions: human, African green monkey; PBM, CEM, Vero, HepG2; read-out: CC50 in all cell lines
Description: as §1

[17] = HepAD38 cells, 10 μM, trial 1, read-out: % HBV DNA Inh. at 10 μM, trial 1

T1 sequence (P03147 1-149): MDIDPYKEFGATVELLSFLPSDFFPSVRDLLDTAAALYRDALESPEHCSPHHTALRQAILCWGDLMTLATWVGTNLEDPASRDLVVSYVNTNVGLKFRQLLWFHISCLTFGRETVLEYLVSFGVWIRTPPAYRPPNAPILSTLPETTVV
T2 sequence (P03147 1-149): as above

CCOC(=O)C1=C(CN2CCOCC2)NC(c2nccs2)=NC1c1ccc(F)cc1Br (centres unmarked) [GLS4, reference compound]
effect on capsid morphology (TEM) [1]: strong misdirecting effects | effect on distribution of dimers and capsids / capsid size (SEC) [2]: strong enhancement of assembly

C#CCNC(=O)C(=O)c1c(C)c(C(=O)Nc2ccc(F)c(F)c2)n(C)c1C [GLP-26]
Kd [3]: 700 nM

CCn1ccnc1-c1c(-c2ccccc2)ncn1CCCc1cccnc1 [GT-39]
inhibition at 200 µM ([4]; HePAD38, 200 µM, additional testing, Table S4, read-out: Anti-HBV activity in HepAD38 cells, % Inh. at 200 µM ± SD): 39.1 ± 1.5% | EC50 ([4]; HePAD38, additional testing, Table S4, read-out: Anti-HBV activity in HepAD38 cells, EC50): > 200 µM | inhibition at 10 µM [4, 17]: 57% | inhibition at 10 µM ([4]; HepAD38 cells, 10 μM, trial 2, read-out: % HBV DNA Inh. at 10 μM, trial 2): 50% | inhibition at 10 µM ([4]; HepAD38 cells, 10 µM, trial 3, read-out: % HBV DNA Inh. at 10 µM, trial 3): < 1% | inhibition at 10 µM ([4]; HepAD38 cells, 10 µM, trial 4, read-out: % HBV DNA Inh. at 10 µM, trial 4): 36% | inhibition at 10 µM ([4]; HepAD38 cells, 10 μM, read-out: % inhibition in at least one of the trials): > 50% | EC50 ([4]; HepAD38 cells, trial 1, read-out: EC50, trial 1): < 10 µM | EC50 ([4]; HepAD38 cells, trial 2, read-out: EC50, trial 2): 10 µM | EC50 ([4]; HepAD38 cells, trial 3, read-out: EC50, trial 3): > 10 µM | EC50 ([4]; HepAD38 cells, trial 4, read-out: EC50, trial 4): > 100 µM | CC50 [5]: > 100 µM | percent cytotoxicity (cell growth inhibition) at 100 µM [6]: 22% | CC50 [7]: 16 µM | CC50 [8]: > 100 µM | % cytotoxicity (MTT) at 100 µM [9]: 47% | CC50 [10]: > 100 µM | percent cytotoxicity (MTT) at 100 µM, HepG2 [11]: 32% | tryptophan fluorescence quenching [12]: reproducible but modest fluorescence quenching | effect on capsid morphology (TEM) [1]: induced misdirected products | % abnormal capsids, Trial 1 ([1]; 500 mM NaCl): 45% | % abnormal capsids, Trial 2 ([1]; 500 mM NaCl): 36% | toxicity in at least one cell line tested [13]: 16 to 18 µM | IC50 [14]: > 200 µM | MTS cytotoxicity, % Inh. at 200 µM [15]: < 1%

Cc1cc2nc(-c3ccccn3)c(-c3ccccn3)nc2cc1C [GT-5]
inhibition at 10 µM ([4]; HepAD38 cells, 10 µM, first round of selected compounds, read-out: HBV DNA inhibition (%) at 10 µM): 24.7% | inhibition at 10 µM [4, 17]: 24% | CC50 [5]: > 100 µM | CC50 [7]: > 100 µM | CC50 [8]: > 100 µM | CC50 [10]: > 100 µM | CC50 [16]: > 100 µM
